Molecules are shown by their SMILES. Several values for one entry are separate records, joined by “and”; a condition that tells them apart may be missing. Equal values may be shown once.

The subject of the test is Swiss mice, Sarcoma 180 sc, mean tumor weight T/C. Description: NCI In Vivo Anticancer Drug Screen. Data for tumor model Sarcoma 180 (subcutaneous) in Swiss mice. Conditions: endpoint: mean tumor weight, higher = larger tumour. The essentials: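 Tumor-bearing mice, transplantable tumor; readout survival or tumor size; result = T/C, treated vs vehicle control.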

In general, T/C refers to the ratio of treated to control. `CS(=O)(=O)OCCCl`: the T/C is 92 % of control (dose: 6.67 mg/kg/injection, schedule: Q#A X014 (ip), vehicle: carboxymethylcellulose (CMC)); 117 % of control (dose: 13.35 mg/kg/injection, schedule: Q01DX007 (ip), vehicle: carboxymethylcellulose (CMC)); 95 % of control (dose: 13.35 mg/kg/injection, schedule: Q#A X014 (ip), vehicle: carboxymethylcellulose (CMC)); 106 % of control (dose: 26.7 mg/kg/injection, schedule: Q01DX007 (ip), vehicle: carboxymethylcellulose (CMC)); 86 % of control (dose: 26.7 mg/kg/injection, schedule: Q#A X014 (ip), vehicle: carboxymethylcellulose (CMC)); 100 % of control (dose: 53.4 mg/kg/injection, schedule: Q01DX007 (ip), vehicle: carboxymethylcellulose (CMC)). The T/C (dose: 106.8 mg/kg/injection, schedule: Q01DX007 (ip), vehicle: carboxymethylcellulose (CMC)) is 94 % of control.

Regarding `CC[C@]1(O)C[C@H]2CN(CCc3c([nH]c4ccccc34)[C@@](C(=O)OC)(c3cc4c(cc3OC)N(C=O)[C@H]3[C@@](O)(C(=O)OC)[C@H](OC(C)=O)[C@]5(CC)C=CCN6CC[C@]43[C@@H]65)C2)C1`, the T/C (dose: 0.12 mg/kg/injection, schedule: Q01DX007 (ip), vehicle: saline) is 57 % of control.

For `NCCCC(NC(=O)CCCCCCCCN=C(N)N)C(O)CCCCCCCCN=C(N)N` (configuration not stated), the T/C is 100 % of control (dose: 0.38 mg/kg/injection, schedule: Q01DX007 (ip), vehicle: carboxymethylcellulose (CMC)); 97 % of control (dose: 0.75 mg/kg/injection, schedule: Q01DX007 (ip), vehicle: carboxymethylcellulose (CMC)); 113 % of control (dose: 1.5 mg/kg/injection, schedule: Q01DX007 (ip), vehicle: carboxymethylcellulose (CMC)); 76 % of control (dose: 3.0 mg/kg/injection, schedule: Q01DX007 (ip), vehicle: carboxymethylcellulose (CMC)); 92 % of control (dose: 6.0 mg/kg/injection, schedule: Q01DX007 (ip), vehicle: carboxymethylcellulose (CMC)); 123 % of control (dose: 9.0 mg/kg/injection, schedule: Q01DX007 (ip), vehicle: carboxymethylcellulose (CMC)). The T/C by setting is: (dose: 12.0 mg/kg/injection, schedule: Q01DX007 (ip), vehicle: carboxymethylcellulose (CMC)) 68 % of control; (dose: 15.0 mg/kg/injection, schedule: Q01DX007 (ip), vehicle: carboxymethylcellulose (CMC)) 47 % of control.

With `CN(C)[C@@H]1C(=O)C(C(=O)NCNCCCC(=O)O)=C(O)[C@@]2(O)C(=O)C3=C(O)c4c(O)cccc4[C@@](C)(O)[C@H]3C[C@@H]12`, the T/C by setting is: (dose: 111.0 mg/kg/injection, schedule: Q#A X014 (ip), vehicle: saline) 97 % of control and 112 % of control; (dose: 166.5 mg/kg/injection, schedule: Q#A X014 (ip), vehicle: saline) 101 % of control and 105 % of control; (dose: 250.0 mg/kg/injection, schedule: Q#A X014 (ip), vehicle: saline) 52 % of control.

Consider `CC(C)C(=O)OCC1OC(n2cnc3c(=S)nc[nH]c32)C(OC(=O)C(C)C)C1OC(=O)C(C)C` (configuration not stated), for which the T/C is, setting by setting: (dose: 17.0 mg/kg/injection, schedule: Q01DX007 (ip), vehicle: steriod suspending solution) 80 % of control; (dose: 24.0 mg/kg/injection, schedule: Q01DX007 (ip), vehicle: carboxymethylcellulose (CMC)) 76 % of control; (dose: 25.0 mg/kg/injection, schedule: Q01DX007 (ip), vehicle: steriod suspending solution) 61 % of control; (dose: 37.0 mg/kg/injection, schedule: Q01DX007 (ip), vehicle: carboxymethylcellulose (CMC)) 38 % of control; (dose: 37.0 mg/kg/injection, schedule: Q01DX007 (ip), vehicle: steriod suspending solution) 66 % of control; (dose: 55.0 mg/kg/injection, schedule: Q01DX007 (ip), vehicle: carboxymethylcellulose (CMC)) 31 % of control and 47 % of control. The T/C is 27 % of control and 37 % of control (dose: 55.0 mg/kg/injection, schedule: Q01DX007 (ip), vehicle: steriod suspending solution); 25 % of control and 31 % of control (dose: 84.0 mg/kg/injection, schedule: Q01DX007 (ip), vehicle: carboxymethylcellulose (CMC)); 52 % of control (dose: 84.0 mg/kg/injection, schedule: Q01DX007 (ip), vehicle: steriod suspending solution); 8 % of control (dose: 125.0 mg/kg/injection, schedule: Q01DX007 (ip), vehicle: carboxymethylcellulose (CMC)); 26 % of control (dose: 125.0 mg/kg/injection, schedule: Q01DX007 (ip), vehicle: steriod suspending solution); 14 % of control and 17 % of control (dose: 188.0 mg/kg/injection, schedule: Q01DX007 (ip), vehicle: steriod suspending solution). Moreover, the T/C (dose: 282.0 mg/kg/injection, schedule: Q01DX007 (ip), vehicle: steriod suspending solution) is 16 % of control and the T/C (dose: 423.0 mg/kg/injection, schedule: Q01DX007 (ip), vehicle: steriod suspending solution) is 16 % of control.

Turning to `Cc1nc2nc(N)nc(N)c2nc1C`, the T/C was 89 % of control (dose: 10.0 mg/kg/injection, schedule: Q01DX007 (ip), vehicle: carboxymethylcellulose (CMC)); 106 % of control (dose: 11.46 mg/kg/injection, schedule: Q01DX007 (ip), vehicle: carboxymethylcellulose (CMC)); 77 % of control (dose: 20.0 mg/kg/injection, schedule: Q01DX007 (ip), vehicle: carboxymethylcellulose (CMC)); 77 % of control (dose: 22.92 mg/kg/injection, schedule: Q01DX007 (ip), vehicle: carboxymethylcellulose (CMC)); 68 % of control (dose: 40.0 mg/kg/injection, schedule: Q01DX007 (ip), vehicle: carboxymethylcellulose (CMC)); 86 % of control (dose: 45.85 mg/kg/injection, schedule: Q01DX007 (ip), vehicle: carboxymethylcellulose (CMC)). In addition, the T/C was 81 % of control (dose: 80.0 mg/kg/injection, schedule: Q01DX007 (ip), vehicle: carboxymethylcellulose (CMC)) and 51 % of control (dose: 91.7 mg/kg/injection, schedule: Q01DX007 (ip), vehicle: carboxymethylcellulose (CMC)).

As to `NNC(=O)NC(=O)NN`, the T/C by setting is: (dose: 9.5 mg/kg/injection, schedule: Q01DX007 (ip), vehicle: carboxymethylcellulose (CMC)) 91 % of control; (dose: 19.0 mg/kg/injection, schedule: Q01DX007 (ip), vehicle: carboxymethylcellulose (CMC)) 124 % of control; (dose: 38.0 mg/kg/injection, schedule: Q01DX007 (ip), vehicle: carboxymethylcellulose (CMC)) 111 % of control; (dose: 76.0 mg/kg/injection, schedule: Q01DX007 (ip), vehicle: carboxymethylcellulose (CMC)) 69 % of control.

Consider `CC1CCOS(=O)O1` (configuration not stated), for which the T/C is 67 % of control (dose: 6.25 mg/kg/injection, schedule: Q01DX007 (ip), vehicle: olive oil, sesame oil, peanut oil); 62 % of control (dose: 6.25 mg/kg/injection, schedule: Q01DX007 (ip), vehicle: propolene glycol); 81 % of control (dose: 6.25 mg/kg/injection, schedule: Q01DX007 (oral), vehicle: olive oil, sesame oil, peanut oil); 81 % of control (dose: 6.25 mg/kg/injection, schedule: Q01DX007 (sc), vehicle: olive oil, sesame oil, peanut oil); 85 % of control (dose: 12.5 mg/kg/injection, schedule: Q01DX007 (ip), vehicle: olive oil, sesame oil, peanut oil); 55 % of control (dose: 12.5 mg/kg/injection, schedule: Q01DX007 (ip), vehicle: propolene glycol). Besides, the T/C is 106 % of control (dose: 12.5 mg/kg/injection, schedule: Q01DX007 (oral), vehicle: olive oil, sesame oil, peanut oil); 74 % of control (dose: 12.5 mg/kg/injection, schedule: Q01DX007 (oral), vehicle: propolene glycol); 97 % of control (dose: 12.5 mg/kg/injection, schedule: Q01DX007 (sc), vehicle: olive oil, sesame oil, peanut oil); 75 % of control (dose: 25.0 mg/kg/injection, schedule: Q01DX007 (ip), vehicle: olive oil, sesame oil, peanut oil); 62 % of control (dose: 25.0 mg/kg/injection, schedule: Q01DX007 (ip), vehicle: propolene glycol); 79 % of control (dose: 25.0 mg/kg/injection, schedule: Q01DX007 (oral), vehicle: olive oil, sesame oil, peanut oil). In addition, the T/C is 80 % of control (dose: 25.0 mg/kg/injection, schedule: Q01DX007 (oral), vehicle: propolene glycol); 65 % of control (dose: 25.0 mg/kg/injection, schedule: Q01DX007 (sc), vehicle: olive oil, sesame oil, peanut oil); 102 % of control (dose: 36.0 mg/kg/injection, schedule: Q01DX007 (ip), vehicle: carboxymethylcellulose (CMC)); 48 % of control (dose: 50.0 mg/kg/injection, schedule: Q01DX007 (ip), vehicle: olive oil, sesame oil, peanut oil); 56 % of control (dose: 50.0 mg/kg/injection, schedule: Q01DX007 (ip), vehicle: propolene glycol); 71 % of control (dose: 50.0 mg/kg/injection, schedule: Q01DX007 (oral), vehicle: olive oil, sesame oil, peanut oil). The T/C (dose: 50.0 mg/kg/injection, schedule: Q01DX007 (oral), vehicle: propolene glycol) was 81 % of control; the T/C (dose: 50.0 mg/kg/injection, schedule: Q01DX007 (sc), vehicle: olive oil, sesame oil, peanut oil) is 66 % of control; the T/C (dose: 54.0 mg/kg/injection, schedule: Q01DX007 (ip), vehicle: carboxymethylcellulose (CMC)) was 84 % of control; the T/C (dose: 81.0 mg/kg/injection, schedule: Q01DX007 (ip), vehicle: carboxymethylcellulose (CMC)) was 57 % of control.

Source of the values: PubChem BioAssay AID342 (DTP/NCI, 2004).
